Assay results published in patent US20240108740A1, “THERAPEUTIC COMPOSITIONS INCLUDING SPN10 AND USES THEREOF” (Stealth BioTherapeutics Inc., priority 2022, published 2024).
Residues, ends and D or L forms follow the SMILES beside them.

Key:
CD-1 mice = assay: Example 7: streptozotocin (STZ)-induced diabetes, renal damage; type: in vivo, mouse; settings: STZ-treated mice
Experimental: Streptozotocin (STZ) will be used to induce diabetes in mice. […] groups of CD-1 mice will be studied: Group I—no STZ treatment; Group II—STZ (50 mg/kg, i.p.) will be given once daily for 5 days; Group III—STZ (50 mg/kg, i.p.) will be given once daily for 5 days, +peptide conjugates (3 mg/kg, i.p.) will be given once daily for 16 days; Group IV—STZ (50 mg/kg, i.p.) will be given once daily for 5 days, +aromatic-cationic peptides (an equivalent molar dose of aromatic-cationic peptide based on the concentration of the aromatic-cationic peptide administered in the peptide conjugate treatment group) will be given once daily for 16 days; Group V—STZ (50 mg/kg, i.p.) will be given once daily for 5 days, +SPN10 (an equivalent molar dose of SPN10 based on the concentration of SPN10 administered in the peptide conjugate treatment group) will be given once daily for 16 days; Group VI—STZ (50 mg/kg, i.p.) will be given once daily for 5 days, +SPN10(s) in combination with aromatic-cationic peptides (e.g., an equivalent molar dose of SPN10 based on the concentration of SPN10 administered in the peptide conjugate treatment group and an equivalent molar dose of aromatic-cationic peptide based on the concentration of aromatic-cationic peptide administered in the peptide conjugate treatment group) will be given once daily for 16 days. It is anticipated that STZ treatment will result in a progressive increase in blood glucose. Animals will be sacrificed after 3 weeks and kidney tissues preserved for histopathology. Kidney sections will be examined by Periodic Schiff (PAS) staining for renal tubular brush border.
It is anticipated that STZ treatment will induce significant apoptosis in tubular epithelial cells. Kidney sections will be examined for apoptosis using a TUNEL assay as described herein. It is anticipated that kidney sections from mice treated with STZ will show a large number of apoptotic nuclei in the proximal tubules, compared to non-STZ treated controls.

[1] = system: Human low density lipoprotein (LDL); assay: Example 18: LDL oxidation (conjugated dienes at 234 nm); type: biochemical; settings: 10 mM, 5 hours at 37° C.
Experimental: Human low density lipoprotein (LDL) will be prepared fresh from stored plasma. LDL oxidation will be induced catalytically by the addition of 10 mM […], and the formation of conjugated dienes will be monitored at 234 nm for 5 hours at 37° C. (B. Moosmann and C. Behl, Mol. Pharmacol. 61:260-268 (2002).

Caco-2 cells = assay: Example 25: mitochondrial membrane potential after t-BHP (TMRM, CLSM); type: cell-based, human; settings: t-BHP 1 mM, 4 hours
Experimental: Caco-2 cells will be treated with t-BHP (1 mM) alone or in the presence of peptide conjugates (0.1 μM); aromatic-cationic peptides (an equivalent molar dose of aromatic-cationic peptide based on the concentration of the aromatic-cationic peptide administered in the peptide conjugate treatment group); SPN10(s) (an equivalent molar dose of SPN10 based on the concentration of SPN10 administered in the peptide conjugate treatment group); or SPN10(s) in combination with aromatic-cationic peptides (e.g., an equivalent molar dose of SPN10 based on the concentration of SPN10 administered in the peptide conjugate treatment group and an equivalent molar dose of aromatic-cationic peptide based on the concentration of aromatic-cationic peptide administered in the peptide conjugate treatment group) for 4 hours, and then incubated with TMRM and examined under CLSM.

[2] = system: Isolated mouse pancreatic islet cells; assay: Example 30: oxidative damage in pancreatic islet cells; type: cell-based; settings: 25 μM t-BHP
Experimental: Isolated mouse pancreatic islet cells will be treated with 25 μM t-BHP alone or in the presence of peptide conjugates, aromatic-cationic peptides, or SPN10(s) with or without aromatic-cationic peptides. Mitochondrial membrane potential will be measured by TMRM (red) and reactive oxygen species will be measured by DCF (green) using confocal microscopy.

cytochrome c = cytochrome c (Homo sapiens, UniProt P99999); assay: Kinetics of cytochrome c reduction (absorbance at 550 nm); type: biochemical
Chain of cytochrome c (P99999 whole entry, species assumed): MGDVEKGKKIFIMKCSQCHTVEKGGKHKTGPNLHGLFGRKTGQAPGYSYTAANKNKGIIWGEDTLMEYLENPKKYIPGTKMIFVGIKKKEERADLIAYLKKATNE
From the text: It is hypothesized that the distribution of SPN10(s) or peptide conjugates among the protein complexes in the IMM allows it to serve as additional an relay station to facilitate ET. […] Addition of N-acetylcysteine (NAC) as a reducing agent is anticipated to result in time-dependent increase in absorbance at 550 nm.

SMILES: N=C(N)NCCC[C@H](NC(=O)[C@@H](N)Cc1c[nH]c2ccccc12)C(=O)N[C@@H](Cc1c[nH]c2ccccc12)C(=O)N[C@@H](CCCCN)C(N)=O [SPN10, H-L-Trp-L-Arg-L-Trp-L-Lys-NH2] (H-WRWK-NH2)
- apoptotic cells in the proximal tubule (TUNEL) (CD-1 mice): dramatically reduce apoptotic cells
- tubular epithelial nuclei (CD-1 mice): appear normal
- loss of brush border in proximal tubules (PAS) (CD-1 mice; daily treatment): prevent the loss of brush border
- rate of LDL oxidation [1]: dose-dependently inhibit the rate of LDL oxidation
- mitochondrial depolarization caused by t-BHP (Caco-2 cells): protect against mitochondrial depolarization
- oxidative damage in isolated pancreatic islet cells [2]: protect against oxidative damage
- reduction of cytochrome c by compound alone (cytochrome c; 100 μM, without NAC): will not reduce cytochrome c
- rate of NAC-induced cytochrome c reduction (cytochrome c; with N-acetylcysteine (NAC)): dose-dependently increase
